Converted amounts (≈) assume the structure as drawn. Where two headings read alike, the source gives them in different places.
Key:
Solubility in water = assay type: physicochemical
[1] = Partitioning of benzyl alcohol and benzaldehyde between 0.1 M phosphate buffer and solvent; assay type: physicochemical
Protocol: The partitioning of benzyl alcohol and benzaldehyde between 0.1 M phosphate buffer and each solvent used were measured as follows: benzyl alcohol (10 g/L) and benzaldehyde (10 g/L) were dissolved in each of the solvents of interest. Ten millilitres of each solvent were then dispensed into a test tube containing 10 ml of 0.1 M phosphate buffer (pH 8). The tubes were capped, vortexed, and the mixture was allowed to equilibrate for 1 hr at 30° C. Both phases were then assayed for benzaldehyde and benzyl alcohol as described above. […]

alcohol oxidase = molecular target: T1, alcohol oxidase (Komagataella phaffii, UniProt P04842); assay: Inhibition of alcohol oxidase by benzaldehyde; assay type: biochemical, Pichia pastoris
T1 construct: purchased Provesta Corp. (Bartlesville, Oklahoma)
T1 sequence (P04842 2-663 limits assumed): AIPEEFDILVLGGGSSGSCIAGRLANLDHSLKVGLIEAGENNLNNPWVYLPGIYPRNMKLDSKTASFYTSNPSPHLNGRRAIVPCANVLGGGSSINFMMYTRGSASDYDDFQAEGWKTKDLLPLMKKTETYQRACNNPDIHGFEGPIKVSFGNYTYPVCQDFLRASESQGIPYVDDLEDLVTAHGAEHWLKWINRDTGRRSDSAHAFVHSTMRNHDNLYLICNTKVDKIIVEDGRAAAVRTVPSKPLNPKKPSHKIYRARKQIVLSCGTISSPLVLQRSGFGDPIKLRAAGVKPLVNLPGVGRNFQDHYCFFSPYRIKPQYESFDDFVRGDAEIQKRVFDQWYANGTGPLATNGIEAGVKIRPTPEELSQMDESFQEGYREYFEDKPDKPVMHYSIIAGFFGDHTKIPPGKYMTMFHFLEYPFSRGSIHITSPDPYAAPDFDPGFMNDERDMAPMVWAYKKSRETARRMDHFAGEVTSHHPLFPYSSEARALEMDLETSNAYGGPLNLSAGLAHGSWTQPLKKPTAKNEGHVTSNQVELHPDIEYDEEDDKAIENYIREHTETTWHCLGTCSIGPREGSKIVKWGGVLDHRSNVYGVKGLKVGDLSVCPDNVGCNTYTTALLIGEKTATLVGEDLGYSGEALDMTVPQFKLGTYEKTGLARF
Text: Similar potent inhibition of yeast alcohol dehydrogenase by aliphatic and aromatic aldehydes including benzaldehyde has been reported (W.R. Bowen et al, J. Chem. Tech. Biotechnol. 36: 191-196, 1986). In two phase systems, the degree to which alcohol oxidase is inhibited by benzaldehyde is controlled by the concentration of the inhibitor, the concentration of the enzyme, the solvent chosen as a reaction fluid, and on the volumetric ratio of the two phases present. The effect of the first two factors is obvious, however the latter two parameters play an important role in determining the effective concentration of the inhibitor; that concentration to which the biocatalyst is exposed, potentially causing inhibition. Benzaldehyde partitions differently between the two phases depending on the solvent chosen. For example, using toluene as an extractant benzaldehyde was efficiently stripped from the aqueous phase (Table 2) and was, therefore, less able to inhibit alcohol oxidase. It is possible that this would result in improved yields over extended reaction times, despite the sacrifice in terms of initial reaction rate.

## O=Cc1ccccc1 [benzaldehyde]
Solubility in water
  solubility: ~3000 µg/mL (≈ 28.3 mM)
[1]; Ether / 0.1 M phosphate buffer pH 8, 30° C.
  Partition Coefficient (Corg /Caq): 69.4
[1]; Ethylacetate / 0.1 M phosphate buffer pH 8, 30° C.
  Partition Coefficient (Corg /Caq): 62.0
[1]; Hexane / 0.1 M phosphate buffer pH 8, 30° C.
  Partition Coefficient (Corg /Caq): 15.4
[1]; Toluene / 0.1 M phosphate buffer pH 8, 30° C.
  Partition Coefficient (Corg /Caq): 100
Alcohol oxidase
  Inhibition of alcohol oxidase: very strongly inhibited
Alcohol oxidase; listed as Benzaldehyde
  Inhibition of alcohol oxidase: extremely potent inhibitor

Reference: patent US5010005A, “Bio-oxidation of high alcohols in non-aqueous reaction media” (priority 1989, dated 1991)
